Results reported in patent US20070292465A1, “Eutectic biocide compositions and formulations” (Clariant International, Ltd., priority 2006, published 2007).

How the values were obtained:
[1] = 25° C., for reference purposes; cited from earlier work
[2] = Physical properties at freezing temperatures and on thawing (Example 3); format: physicochemical
Description: The following samples were tested to observe their physical properties at freezing temperatures:
After blending, such as by the method above, for example, all samples were allowed to cool to room temperature (20° C.). All samples stayed liquid at room temperature, except for blend 5.
All samples were placed in a freezer overnight ([…]).
All samples were placed back in the same freezer at the same temperature for an additional 2 days. In the BCP sample, there was-no change.
All samples were left at room temperature to thaw overnight.

[3] = Brookfield viscosity, SC4-18 spindle, 100 rpm; format: physicochemical
Description: The procedure used a Brookfield viscometer.
The apparatus used was a Brookfield viscometer, Programmable DV-II+Viscometer and a SC4-18 spindle.
The samples were tested at 100 rpm and at a range of temperatures, as shown in Table 4—Viscosity Measurement Results below.
All measurements were made in centipoise. For reference purposes, the viscosity of water, at 25° C. is 0.89 centipoise, and the viscosity of ethylene glycol at 25° C. is about 16 centipoise.

OCCO [ethylene glycol]
viscosity (reference) [1]: about 16 centipoise

O [water]
viscosity (reference) [1]: 0.89 centipoise

Oc1ccc(Cl)cc1Cc1ccccc1 [BCP, o-benzyl p-chlorophenol]
physical state after overnight freezing ([2]; freezer overnight (23° C.)): frozen solid
physical state after extended freezing ([2]; same freezer, same temperature, additional 2 days): no change
viscosity ([3]; 10 ° C.): Crystalline
viscosity ([3]; 40 ° C.): 29.4 centipoise
